According to ChEMBL document CHEMBL3885861, “Open TG-GATES”:

Species on record: Rattus norvegicus
Assay: Open TG-GATES - Regimen: Single
Type: toxicity, organism-based, Sprague-Dawley
Parameters: regimen Single, gender Male, age 6 weeks
Settings: in vivo, ip, 24 h, route intraperitoneal injection; for Bas / Eos / Hb / Ht / Lym / MCH / MCHC / MCV / Mono / Neu / Plat / RBC / Ret / WBC: tissue Blood; for KIDNEY_L / KIDNEY_R / KIDNEY_TOTAL: tissue Kidney; for LIVER: tissue Liver; for A/G / ALP / ALT / AST / BUN / CRE / Ca / Cl / DBIL / GLC / IP / K / LDH / Na / PL / RALB / TBIL / TC / TG / TP / gamma-GTP: tissue Plasma

Compound: CN(N=O)C(N)=O [N-METHYL-N-NITROSUREA]
- TERMINAL_BW (0 mg/kg, dose level Control): 240.3 g
- Bas (0 mg/kg, dose level Control): 0%
- Eos (0 mg/kg, dose level Control): 0.8%
- Hb (0 mg/kg, dose level Control): 12.5 g/dL
- Ht (0 mg/kg, dose level Control): 38.8%
- Lym (0 mg/kg, dose level Control): 78.8%
- MCH (0 mg/kg, dose level Control): 19.9 pg
- MCHC (0 mg/kg, dose level Control): 32.4%
- MCV (0 mg/kg, dose level Control): 61.6 fL
- Mono (0 mg/kg, dose level Control): 2.4%
- Neu (0 mg/kg, dose level Control): 17.6%
- Plat (0 mg/kg, dose level Control): 125.4 x10_4/uL
- RBC (0 mg/kg, dose level Control): 629.8 x10_4/ul
- Ret (0 mg/kg, dose level Control): 8.1%
- WBC (0 mg/kg, dose level Control): 104.4 x10_2/uL
- KIDNEY_L (0 mg/kg, dose level Control): 1 g
- KIDNEY_R (0 mg/kg, dose level Control): 1 g
- KIDNEY_TOTAL (0 mg/kg, dose level Control): 2 g
- LIVER (0 mg/kg, dose level Control): 11.1 g
- A/G (0 mg/kg, dose level Control): 1
- ALP (0 mg/kg, dose level Control): 1557.2 IU/L
- ALT (0 mg/kg, dose level Control): 41.2 IU/L
- AST (0 mg/kg, dose level Control): 72.8 IU/L
- BUN (0 mg/kg, dose level Control): 17.5 mg/dL
- CRE (0 mg/kg, dose level Control): 0.2 mg/dL
- Ca (0 mg/kg, dose level Control): 10.7 mg/dL
- Cl (0 mg/kg, dose level Control): 102.9 meq/L
- DBIL (0 mg/kg, dose level Control): 0 mg/dL
- GLC (0 mg/kg, dose level Control): 198 mg/dL
- IP (0 mg/kg, dose level Control): 7.1 mg/dL
- K (0 mg/kg, dose level Control): 4.2 meq/L
- LDH (0 mg/kg, dose level Control): 141.2 IU/L
- Na (0 mg/kg, dose level Control): 141.4 meq/L
- PL (0 mg/kg, dose level Control): 160 mg/dL
- RALB (0 mg/kg, dose level Control): 2.7 g/dL
- TBIL (0 mg/kg, dose level Control): 0.004 mg/dL
- TC (0 mg/kg, dose level Control): 79.4 mg/dL
- TG (0 mg/kg, dose level Control): 135 mg/dL
- TP (0 mg/kg, dose level Control): 5.6 g/dL
- gamma-GTP (0 mg/kg, dose level Control): 1 IU/L
- TERMINAL_BW (10 mg/kg, dose level Low): 233.4 g
- Bas (10 mg/kg, dose level Low): 0%
- Eos (10 mg/kg, dose level Low): 0.2%
- Hb (10 mg/kg, dose level Low): 13 g/dL
- Ht (10 mg/kg, dose level Low): 39.7%
- Lym (10 mg/kg, dose level Low): 90.2%
- MCH (10 mg/kg, dose level Low): 19.9 pg
- MCHC (10 mg/kg, dose level Low): 32.8%
- MCV (10 mg/kg, dose level Low): 60.7 fL
- Mono (10 mg/kg, dose level Low): 2.6%
- Neu (10 mg/kg, dose level Low): 5.6%
- Plat (10 mg/kg, dose level Low): 126.2 x10_4/uL
- RBC (10 mg/kg, dose level Low): 653 x10_4/ul
- Ret (10 mg/kg, dose level Low): 5.7%
- WBC (10 mg/kg, dose level Low): 66.8 x10_2/uL
- KIDNEY_L (10 mg/kg, dose level Low): 1 g
- KIDNEY_R (10 mg/kg, dose level Low): 1 g
- KIDNEY_TOTAL (10 mg/kg, dose level Low): 2.1 g
- LIVER (10 mg/kg, dose level Low): 10.9 g
- A/G (10 mg/kg, dose level Low): 1
- ALP (10 mg/kg, dose level Low): 1481.4 IU/L
- ALT (10 mg/kg, dose level Low): 33.4 IU/L
- AST (10 mg/kg, dose level Low): 65.8 IU/L
- BUN (10 mg/kg, dose level Low): 16.9 mg/dL
- CRE (10 mg/kg, dose level Low): 0.1 mg/dL
- Ca (10 mg/kg, dose level Low): 10.6 mg/dL
- Cl (10 mg/kg, dose level Low): 102.9 meq/L
- DBIL (10 mg/kg, dose level Low): 0.004 mg/dL
- GLC (10 mg/kg, dose level Low): 198 mg/dL
- IP (10 mg/kg, dose level Low): 7.2 mg/dL
- K (10 mg/kg, dose level Low): 4.1 meq/L
- LDH (10 mg/kg, dose level Low): 138.4 IU/L
- Na (10 mg/kg, dose level Low): 141 meq/L
- PL (10 mg/kg, dose level Low): 167.6 mg/dL
- RALB (10 mg/kg, dose level Low): 2.9 g/dL
- TBIL (10 mg/kg, dose level Low): 0.01 mg/dL
- TC (10 mg/kg, dose level Low): 85.6 mg/dL
- TG (10 mg/kg, dose level Low): 118.8 mg/dL
- TP (10 mg/kg, dose level Low): 5.7 g/dL
- gamma-GTP (10 mg/kg, dose level Low): 0.8 IU/L
- TERMINAL_BW (30 mg/kg, dose level Middle): 227.7 g
- Bas (30 mg/kg, dose level Middle): 0%
- Eos (30 mg/kg, dose level Middle): 0%
- Hb (30 mg/kg, dose level Middle): 11.8 g/dL
- Ht (30 mg/kg, dose level Middle): 35.8%
- Lym (30 mg/kg, dose level Middle): 80.2%
- MCH (30 mg/kg, dose level Middle): 20.8 pg
- MCHC (30 mg/kg, dose level Middle): 32.9%
- MCV (30 mg/kg, dose level Middle): 63.3 fL
- Mono (30 mg/kg, dose level Middle): 3.2%
- Neu (30 mg/kg, dose level Middle): 15.4%
- Plat (30 mg/kg, dose level Middle): 127.5 x10_4/uL
- RBC (30 mg/kg, dose level Middle): 566 x10_4/ul
- Ret (30 mg/kg, dose level Middle): 4.9%
- WBC (30 mg/kg, dose level Middle): 34.5 x10_2/uL
- KIDNEY_L (30 mg/kg, dose level Middle): 1 g
- KIDNEY_R (30 mg/kg, dose level Middle): 1 g
- KIDNEY_TOTAL (30 mg/kg, dose level Middle): 2 g
- LIVER (30 mg/kg, dose level Middle): 9.9 g
- A/G (30 mg/kg, dose level Middle): 0.9
- ALP (30 mg/kg, dose level Middle): 1270.8 IU/L
- ALT (30 mg/kg, dose level Middle): 35.2 IU/L
- AST (30 mg/kg, dose level Middle): 70 IU/L
- BUN (30 mg/kg, dose level Middle): 17.6 mg/dL
- CRE (30 mg/kg, dose level Middle): 0.1 mg/dL
- Ca (30 mg/kg, dose level Middle): 10.4 mg/dL
- Cl (30 mg/kg, dose level Middle): 103.6 meq/L
- DBIL (30 mg/kg, dose level Middle): 0.01 mg/dL
- GLC (30 mg/kg, dose level Middle): 196 mg/dL
- IP (30 mg/kg, dose level Middle): 8.3 mg/dL
- K (30 mg/kg, dose level Middle): 3.9 meq/L
- LDH (30 mg/kg, dose level Middle): 151 IU/L
- Na (30 mg/kg, dose level Middle): 141.8 meq/L
- PL (30 mg/kg, dose level Middle): 150.4 mg/dL
- RALB (30 mg/kg, dose level Middle): 2.7 g/dL
- TBIL (30 mg/kg, dose level Middle): 0.022 mg/dL
- TC (30 mg/kg, dose level Middle): 82.6 mg/dL
- TG (30 mg/kg, dose level Middle): 51.7 mg/dL
- TP (30 mg/kg, dose level Middle): 5.6 g/dL
- gamma-GTP (30 mg/kg, dose level Middle): 1 IU/L
- TERMINAL_BW (100 mg/kg, dose level High): 207.9 g
- Bas (100 mg/kg, dose level High): 0%
- Eos (100 mg/kg, dose level High): 0%
- Hb (100 mg/kg, dose level High): 13.8 g/dL
- Ht (100 mg/kg, dose level High): 41.1%
- Lym (100 mg/kg, dose level High): 14.2%
- MCH (100 mg/kg, dose level High): 20.5 pg
- MCHC (100 mg/kg, dose level High): 33.5%
- MCV (100 mg/kg, dose level High): 61.1 fL
- Mono (100 mg/kg, dose level High): 3.2%
- Neu (100 mg/kg, dose level High): 82%
- Plat (100 mg/kg, dose level High): 117.5 x10_4/uL
- RBC (100 mg/kg, dose level High): 673.6 x10_4/ul
- Ret (100 mg/kg, dose level High): 4.4%
- WBC (100 mg/kg, dose level High): 13.1 x10_2/uL
- KIDNEY_L (100 mg/kg, dose level High): 1 g
- KIDNEY_R (100 mg/kg, dose level High): 1 g
- KIDNEY_TOTAL (100 mg/kg, dose level High): 1.9 g
- LIVER (100 mg/kg, dose level High): 9.7 g
- A/G (100 mg/kg, dose level High): 1
- ALP (100 mg/kg, dose level High): 1181 IU/L
- ALT (100 mg/kg, dose level High): 28.6 IU/L
- AST (100 mg/kg, dose level High): 113 IU/L
- BUN (100 mg/kg, dose level High): 16.2 mg/dL
- CRE (100 mg/kg, dose level High): 0.1 mg/dL
- Ca (100 mg/kg, dose level High): 10.3 mg/dL
- Cl (100 mg/kg, dose level High): 101.6 meq/L
- DBIL (100 mg/kg, dose level High): 0.01 mg/dL
- GLC (100 mg/kg, dose level High): 197.8 mg/dL
- IP (100 mg/kg, dose level High): 8.2 mg/dL
- K (100 mg/kg, dose level High): 3.6 meq/L
- LDH (100 mg/kg, dose level High): 166.4 IU/L
- Na (100 mg/kg, dose level High): 142.3 meq/L
- PL (100 mg/kg, dose level High): 150.4 mg/dL
- RALB (100 mg/kg, dose level High): 2.7 g/dL
- TBIL (100 mg/kg, dose level High): 0.016 mg/dL
- TC (100 mg/kg, dose level High): 75.8 mg/dL
- TG (100 mg/kg, dose level High): 59.3 mg/dL
- TP (100 mg/kg, dose level High): 5.4 g/dL
- gamma-GTP (100 mg/kg, dose level High): 0.7 IU/L
